# Experiments:
# [1] = tested on: NCI-H460 non-small cell lung cancer cell line; assay: Cytotoxicity, SRB assay, NCI-H460; conditions: Homo sapiens, NCI-H460, read-out: GI50 SRB assay NCI-H460
# [2] = tested on: HUVECs capillary-like tubule network; assay: HUVEC endothelial tube disruption on Matrigel; format: cell-based, human; conditions: 2 h treatment of network pre-established over 16 h
# tubulin [3] = assay: Inhibition of [3H]colchicine binding to tubulin; conditions: inhibitor 5 µM; 1 µM tubulin, 5 µM [3H]colchicine
# [4] = Solubility in water / D2O; format: physicochemical
# tubulin [5] = conditions: read-out: Inhibition of tubulin polymerization IC50; ref [34]; cited from earlier work
compound,measurement,setting,value
COc1ccc2c(c1N)CCCC=C2c1cc(OC)c(OC)c(OC)c1 [Compound 3],GI50,[1],4.69 nM
same,Tubule disruption,[2]; 0.10 µM,Tubule disruption and cell rounding was observed
same,Tubule disruption,[2]; 1 µM,greatly increased
"COc1ccc(/C=C\c2cc(OC)c(OC)c(OC)c2)cc1O [CA4, combretastatin A-4, reference compound]",Inhibition of Colchicine binding,tubulin [3],100%
same,Tubule disruption,[2]; 0.01 µM,tubule disruption activity was detected
COc1ccc2c(c1N)CCCC=C2c1cc(OC)c(OC)c(OC)c1.Cl [Compound 16],Solubility in water,[4]; hydrochloride salt,limited solubility in water
same,Amount completely dissolved,"[4]; in approximately 1.0 mL of D2O (NMR study), clear solution took several days",approximately 3 mg
"COc1ccc(/C=C\c2cc(OC)c(OC)c(OC)c2)c(O)c1O [CA1, Combretastatin A-1]",IC50,tubulin [5],1900 nM

# From publication PMC3682772 (MedChemComm, 2012)
